Measured values from patent US12239133B2, “Herbicidal composition” (ISHIHARA SANGYO KAISHA, LTD., priority 2019, dated 2025).

Assays:
Assay type in all cases: in vivo
[1] = system: velvetleaf (Abutilon theophrasti Medik.); test: Example 3: pot test, foliar treatment of velvetleaf, pyroxsulam versus penoxsulam
Experimental: (§1) Upland field soil was put into a 1/1,000,000 hectare pot, and seeds of velvetleaf (Abutilon theophrasti Medik.) were sown. […] Further, the growth inhibition rate (expected value) was calculated in accordance with the Colby's formula.

[2] = system: velvetleaf (Abutilon theophrasti Medik.); test: Example 1: pot test, foliar treatment of velvetleaf, visual growth inhibition rate; conditions: 12th day after foliar treatment
Experimental: as §1

[3] = system: velvetleaf (Abutilon theophrasti Medik.); test: Example 2: pot test, foliar treatment of velvetleaf, visual growth inhibition rate; conditions: 15th day after foliar treatment
Experimental: as §1

## COc1cnc(OC)n2nc(NS(=O)(=O)c3c(OCC(F)F)cccc3C(F)(F)F)nc12 [Penoxsulam, penoxsulam]
[1]; Abutilon theophrasti, dose 0.5 g/ha, 8th day after foliar treatment, read-out: Growth inhibition rate (%) Measured value (A)
  inhibition at 0.5 g/ha: 0%
[1]; Abutilon theophrasti, dose 0.75 g/ha, 8th day after foliar treatment, read-out: Growth inhibition rate (%) Measured value (A)
  inhibition at […]: 0%
[1]; Abutilon theophrasti, dose 3 g/ha, 8th day after foliar treatment, read-out: Growth inhibition rate (%) Measured value (A)
  inhibition at 3 g/ha: 37%
[1]; combined with tolpyralate, summary in words of Table 3, 8th day
  grow inhibition compared with expected (Colby): a grow inhibition rate more than expected was not obtained

## COc1cc(OC)n2nc(NS(=O)(=O)c3c(C(F)(F)F)ccnc3OC)nc2n1 [Pyroxsulam, pyroxsulam]
[2]; dose 0.5 g/ha
  Growth inhibition rate (%) Measured value (A): 2%
[2]; dose 1.5 g/ha
  Growth inhibition rate (%) Measured value (A): 17%
[2]; dose 2.25 g/ha
  Growth inhibition rate (%) Measured value (A): 25%
[2]; dose 3 g/ha
  Growth inhibition rate (%) Measured value (A): 27%
[1]; dose 0.5 g/ha, 8th day after foliar treatment
  Growth inhibition rate (%) Measured value (A): 0%
[1]; dose 3 g/ha, 8th day after foliar treatment
  Growth inhibition rate (%) Measured value (A): 32%
[3]; dose 0.125 g/ha
  Growth inhibition rate (%) Measured value (A): 0%
[3]; dose 0.25 g/ha
  Growth inhibition rate (%) Measured value (A): 0%
[3]; dose 0.5 g/ha
  Growth inhibition rate (%) Measured value (A): 0%
[3]; dose 3 g/ha
  Growth inhibition rate (%) Measured value (A): 20%
[3]; dose 4 g/ha
  Growth inhibition rate (%) Measured value (A): 30%
[3]; dose 5 g/ha
  Growth inhibition rate (%) Measured value (A): 33%
[3]; dose 6 g/ha
  Growth inhibition rate (%) Measured value (A): 35%

## CCn1ncc(C(=O)c2ccc(S(C)(=O)=O)c(OCCOC)c2C)c1OC(C)OC(=O)OC (stereo not drawn) [Tolpyralate, tolpyralate]
[2]; dose 2.5 g/ha
  Growth inhibition rate (%) Measured value (A): 20%
[2]; dose 3.75 g/ha
  Growth inhibition rate (%) Measured value (A): 27%
[1]; dose 2.5 g/ha, 8th day after foliar treatment
  Growth inhibition rate (%) Measured value (A): 10%
[3]; dose 2.5 g/ha
  Growth inhibition rate (%) Measured value (A): 37%
